Measured values as given in US4072574A, “System for in vitro assay for mutagenicity and/or carcinogenicity of chemicals or other exogenous agents” (priority 1976, dated 1978).

Legend:
[1] = Fidelity of in vitro DNA synthesis (error frequency) with AMV DNA polymerase copying synthetic polynucleotide templates; settings: amv dna polymerase
Text: (§1) In this invention, the ability of carcinogens to decrease the fidelity of in vitro DNA synthesis will be used to screen for carcinogenic or mutagenic agents. The system uses synthetic polynucleotides of defined composition which may be copied in the test tubes with procaryotic, eucaryotic or viral DNA polymerases. The use of synthetic polynucleotides of defined composition allows the measurement of the simultaneous incorporation of the correct, complementary nucleotide and an incorrect, non-complementary nucleotide. The correct nucleotide is labeled with [α-^32 P] of low specific activity and the incorrect nucleotide is labeled with [^3 H] of high specific activity. Through this double labeled reaction it is possible to determine the simultaneous incorporation of both nucleotides and thus to determine an error frequency. The error frequency may be defined as the ratio of the incorrect/correct nucleotide incorporation. Agents which increase this error frequency may be scored as positive. […] Agents which score positive would be checked using different templates to underscore the positive results. In this system different polymerases will be used as well as different templates. One would expect that most carcinogens would change the fidelity of DNA synthesis with different polymerases as well as with different templates though this need not be the case.
(§2) Each assay will consist of a polymerase, a polynucleotide template that only contains one or two nucleotides, a complementary nucleotide and a non-complementary nucleotide as well as magnesium. Both of the nucleotides will be labeled by radioactive precursors and the ratio between the two is to be used for a measure of error frequency in the system. In instances where a template requires two complementary nucleotides, only one will be radioactively labeled.
(§3) Reactions (total volume 0.05 ml) which measured complementary nucleotide incorporation contained 50 mM Tris-HCL (pH 8.0), 20 mM KCl, 5 mM dithiothreitol, 5 mM MgCl2, 2μg BSA, […] [α-^32 P] -dTTP (60 dpm/pmole), 1μg poly (A).oligo (dT) (1:1.5 mass ratio), and 0.45 μg of AMV DNA polymerase. For simultaneous quantitation of complementary and non-complementary nucleotide incorporation each reaction was modified to contain 26μM [α-^32 P]dTTP (12 dpm/pmole) and 23μM [^3 H]-dCTP (50,000 dpm/pmole). […] Metals were added directly to the reaction mixture as aqueous solutions of chloride salts. All reactions were incubated for 60 min. at 37° C. Incorporation of radioactive nucleotides into an acid-insoluble and alkali-resistant product was determined by using the precipitation-solubilization procedure as described by Battula and Loeb. All experiments were performed in triplicate and the averages were determined.
(§4) In order to determine the effect of different metals on the accuracy of DNA replication, metal cations were added as chloride salts directly to the polymerase reaction. In these experiments, poly (A).oligo (dT) was the template-primer and the simultaneous incorporation of complementary nucleotide, [α-^32 P]-dTMP, and the non-complementery nucleotide, [^3 H]-dCMP, was determined.
(§5) The effect of metal salts on the fidelity of DNA synthesis was examined by testing each of the metal salts at a minimum of seven different concentrations.

AMV DNA polymerase [2] = test: as above; settings: for Class: Table 1, classes 1-3 not defined; for Complementary Nucleotide (pmoles dTMP) / Non-Complementary Nucleotide (pmoles dCMP) / Error Frequency / effect on error frequency (in words): poly (A).oligo (dT); for Error Frequency: dCMP/dTMP; for effect on error frequency (in words): dTMP complementary, dCMP non-complementary
Text: as §1, §2, §3, §4, §5

[3] = known status of the compound; cited from earlier work
AMV DNA polymerase [4] = test: Metal requirements for catalysis by AMV DNA polymerase; assay type: biochemical, avian myeloblastosis virus; settings: poly (A).oligo (dT); for ability to substitute for Mg^2+ as added divalent cation: absence of Mg^2+, Be^2+ up to 15 mM
Description: All known DNA polymerases require either Mg^2+ or Mn^2+ as an added divalent cation for activity. AMV DNA polymerase used Mg^2+ as an added divalent cation and the maximum rate of polymerization with poly (A).oligo (dT) was attained at 5 mM Mg^2+. […] Thymidine monophosphate incorporation with Be^2+ was less than 0.3% of that obtained with 5 mM Mg^2+.

[5] = 10 mM added cation + Mg^2+ 5 mM

## CC(=O)O [NaC2 H3 O2]
[1]; poly(c).oligo(dg)
  fold induction at 1 h: 1
AMV DNA polymerase [2]; template poly (C).oligo (dG)
  Class: 2
  Metal Concentration which yielded the largest observed change in error rate: 100 mM
[3]
  Carcinogen or Mutagen: -

## CC(=O)O [Ba(C2 H3 O2)2]
[1]; poly [d(a-t)]
  fold induction at 1 h: 0.94
AMV DNA polymerase [2]; template poly [d(A-T)]
  Class: 2
  Metal Concentration which yielded the largest observed change in error rate: 10 mM

## [Cl-].[Cl-].[Mg+2] [Mg^2+, magnesium chloride]
AMV DNA polymerase [2]; Mg^2+ 2 mM alone
  Complementary Nucleotide (pmoles dTMP): 320 pmol
  Non-Complementary Nucleotide (pmoles dCMP): 0.56 pmol
  Error Frequency: 1/571
AMV DNA polymerase [2]; Mg^2+ 5 mM alone
  Complementary Nucleotide (pmoles dTMP): 600 pmol
  Non-Complementary Nucleotide (pmoles dCMP): 1.16 pmol
  Error Frequency: 1/517
AMV DNA polymerase [2]; Mg^2+ 8 mM alone
  Complementary Nucleotide (pmoles dTMP): 520 pmol
  Non-Complementary Nucleotide (pmoles dCMP): 1.00 pmol
  Error Frequency: 1/520
AMV DNA polymerase [2]; Mg^2+ 15 mM alone
  Complementary Nucleotide (pmoles dTMP): 240 pmol
  Non-Complementary Nucleotide (pmoles dCMP): 0.90 pmol
  Error Frequency: 1/600
AMV DNA polymerase [2]
  effect on error frequency (in words): invariant with respect to Mg^2+ concentration
AMV DNA polymerase [4]
  Mg^2+ concentration at which the maximum rate of polymerization was attained: 5 mM

## O=CO [NH4 COOH]
[1]; poly [d(a-t)]
  fold induction at 1 h: 0.83
AMV DNA polymerase [2]; template poly [d(A-T)]
  Class: 2
  Metal Concentration which yielded the largest observed change in error rate: 100 mM

## [Ca+2].[Cl-].[Cl-] [CaCl2]
AMV DNA polymerase [2]; 1 mM added cation + Mg^2+ 5 mM
  Complementary Nucleotide (pmoles dTMP): 704 pmol
  Non-Complementary Nucleotide (pmoles dCMP): 0.70 pmol
  Error Frequency: 1/1005
AMV DNA polymerase [2]; 2 mM added cation + Mg^2+ 5 mM
  Complementary Nucleotide (pmoles dTMP): 129 pmol
  Non-Complementary Nucleotide (pmoles dCMP): 0.19 pmol
  Error Frequency: 1/681
AMV DNA polymerase [2]; 5 mM added cation + Mg^2+ 5 mM
  Complementary Nucleotide (pmoles dTMP): 55 pmol
  Non-Complementary Nucleotide (pmoles dCMP): 0.083 pmol
  Error Frequency: 1/665
AMV DNA polymerase [2]; template poly (A).oligo (dT)
  Class: 2
  Metal Concentration which yielded the largest observed change in error rate: 5 mM
AMV DNA polymerase [2]
  effect on error frequency (in words): did not alter the error frequency
AMV DNA polymerase [4]
  ability to substitute for Mg^2+ as added divalent cation: unable to substitute for Mg^2+
[3]
  Carcinogen or Mutagen: -

## [Ba+2].[Cl-].[Cl-] [BaCl2]
AMV DNA polymerase [2]; 2 mM added cation + Mg^2+ 5 mM
  Complementary Nucleotide (pmoles dTMP): 240 pmol
  Non-Complementary Nucleotide (pmoles dCMP): 0.42 pmol
  Error Frequency: 1/578
AMV DNA polymerase [2]; 6 mM added cation + Mg^2+ 5 mM
  Complementary Nucleotide (pmoles dTMP): 243 pmol
  Non-Complementary Nucleotide (pmoles dCMP): 0.46 pmol
  Error Frequency: 1/528
AMV DNA polymerase [2]; [5]
  Complementary Nucleotide (pmoles dTMP): 317 pmol
  Non-Complementary Nucleotide (pmoles dCMP): 0.61 pmol
  Error Frequency: 1/520
AMV DNA polymerase [2]; template poly (A).oligo (dT)
  Class: 2
  Metal Concentration which yielded the largest observed change in error rate: 10 mM
AMV DNA polymerase [2]
  effect on error frequency (in words): did not affect either the incorporation of the complementary or non-complementary nucleotides
AMV DNA polymerase [4]
  ability to substitute for Mg^2+ as added divalent cation: unable to substitute for Mg^2+
[3]
  Carcinogen or Mutagen: -

## O=C(O)O [NaHCO3]
[1]; poly [d(a-t)]
  fold induction at 1 h: 0.96
AMV DNA polymerase [2]; template poly [d(A-T)]
  Class: 2
  Metal Concentration which yielded the largest observed change in error rate: 40 mM
[3]
  Carcinogen or Mutagen: -

## O=S(=O)([O-])[O-].O=S(=O)([O-])[O-].O=S(=O)([O-])[O-].[Al+3].[Al+3] [(Al)2 (SO4)3]
AMV DNA polymerase [2]; template poly [d(A-T)]
  Class: 2
  Metal Concentration which yielded the largest observed change in error rate: 10 mM
[3]
  Carcinogen or Mutagen: -

## [Cl-].[Cl-].[Sr+2] [SrCl2]
AMV DNA polymerase [2]; 4 mM added cation + Mg^2+ 5 mM
  Complementary Nucleotide (pmoles dTMP): 798 pmol
  Non-Complementary Nucleotide (pmoles dCMP): 0.86 pmol
  Error Frequency: 1/927
AMV DNA polymerase [2]; 6 mM added cation + Mg^2+ 5 mM
  Complementary Nucleotide (pmoles dTMP): 936 pmol
  Non-Complementary Nucleotide (pmoles dCMP): 0.96 pmol
  Error Frequency: 1/975
AMV DNA polymerase [2]; [5]
  Complementary Nucleotide (pmoles dTMP): 845 pmol
  Non-Complementary Nucleotide (pmoles dCMP): 0.86 pmol
  Error Frequency: 1/982
AMV DNA polymerase [2]; template poly (A).oligo (dT)
  Class: 3
  Metal Concentration which yielded the largest observed change in error rate: 10 mM
AMV DNA polymerase [2]
  effect on error frequency (in words): did not affect either the incorporation of the complementary or non-complementary nucleotides
[3]
  Carcinogen or Mutagen: -
